Tested on: H1 human embryonic stem cells
Test: Compounds and growth factors with low dose activin A (Example 9, Table 9)
Type: cell-based
Description: Clusters of H1 human embryonic stem cells were grown on reduced growth factor […]™ (Invitrogen; Cat #356231)-coated tissue culture plastic. Cells were passaged using collagenase (Invitrogen; Cat #17104-019) treatment and gentle scraping, washed to remove residual enzyme, and plated with even dispersal at a ratio of 1:1 (surface area) on reduced growth factor […]™-coated 96-well black plates (Packard ViewPlates; PerkinElmer; Cat #6005182) using volumes of 100 μl/well. Cells were allowed to attach as clusters and then recover log phase growth over a 1 to 3 day period, feeding daily with MEF conditioned medium supplemented with 8 ng/ml bFGF (R&D Systems; Cat #233-FB). Plates were maintained at 37° C., 5% CO2 in a humidified box throughout the duration of assay.
Stocks of growth factors purchased from R&D Systems were EGF (Cat #236-EG), FGF4 (Cat #235-F4), PDGF-A (Cat #221-AA), PDGF-D (Cat #1159-SB), PDGF-A/B (Cat #222-AB), VEGF (Cat #293-VE), and GDF-8 (Cat #788-08). Activin A was purchased from PeproTech (Cat #). Muscimol was purchased from Tocris (Cat #0289). All growth factors were solubilized in PBS with 0.1% BSA (Sigma; Cat #A7888) and stored frozen at −80° C. Muscimol was solubilized in 100% DMSO (Sigma; Cat #D2650) and stored frozen at −80° C. The compounds were available as 5 mM stocks in 96-well plate format, solubilized in 100% DMSO and stored at −80° C. The compounds were further diluted to an intermediate concentration of 0.2 mM in 50 mM HEPES (Invitrogen; Cat #15630-080), 20% DMSO and stored at 4° C. All growth factors and inhibitors were prepared in a deep well, 96-well polypropylene plate, diluted to 5× intermediate stocks in DMEM:F12 base medium at the beginning of assay and stored at 4° C.
A secondary screening assay was conducted, testing in triplicate and feeding on alternate days over the four-day assay timeframe. Assays were initiated by aspirating culture medium from each well followed by three washes in PBS to remove residual growth factors and serum. Test volumes of 80 μl per well were added back containing DMEM:F12 base medium (Invitrogen; Cat #11330-032) supplemented with 0.625% FCS (HyClone; Cat #SH30070.03), 25 ng/ml Wnt3a (R&D Systems), 12.5 ng/ml activin A, and 3.125 μM compound plus 20 μl 5× stock of growth factor or small molecule to yield a final concentration of 0.5% FCS, 20 ng/ml Wnt3a, 10 ng/ml activin A, and 2.5 μM compound. All remaining growth factors were tested at a final assay concentration of 50 ng/ml (EGF, FGF4, PDGF-A, PDGF-A/B, VEGF), with the exception of GDF-8 used at 25 ng/ml. Final assay concentration of muscimol was 20 μM. Positive control wells (100 μl/well) contained the same base medium supplemented with 0.5% FCS, 20 ng/ml Wnt3a and 10 ng/ml (low dose) or 100 ng/ml (high dose) activin A. Negative control wells (100 μl/well) contained the same base medium with 0.5% FCS and 20 ng/ml Wnt3a, omitting activin A.
Positive control wells (100 μl/well) contained the same base medium supplemented with 2% FCS and 10 ng/ml or 100 ng/ml activin A, omitting Wnt3a. Negative control wells (100 μl/well) contained the same base medium with 2% FCS, omitting both activin A and Wnt3a.
At the conclusion of four-days of culture, assay plates were washed twice with PBS, fixed with 4% paraformaldehyde (Alexis Biochemical; Cat #ALX-350-011) at room temperature for 20 minutes, then washed three times with PBS and permeabilized with 0.5% Triton X-100 (Sigma; Cat #T8760-2) for 20 minutes at room temperature. Cells were washed again three times with PBS and blocked with 4% chicken serum (Invitrogen; Cat #16110082) in PBS for 30 minutes at room temperature. Primary antibody (goat anti-human SOX17; R&D Systems; cat #AF1924) was diluted 1:100 in 4% chicken serum and added to each well for one hour at room temperature. […]

[1] = 10 ng/ml AA + compound + EGF + FGF4 + PDGF-A + Muscimol + Wnt3a
[2] = 10 ng/ml AA + compound + EGF + FGF4 + PDGF-A + VEGF + PDGF-D + Muscimol + GDF8 + Wnt3a
[3] = 10 ng/ml AA + compound + EGF + FGF4 + PDGF-AB + VEGF + Wnt3a
[4] = 10 ng/ml AA + compound + EGF + FGF4 + PDGF-AB + Wnt3a
[5] = 10 ng/ml AA + compound + EGF + FGF4 + Wnt3a
[6] = 10 ng/ml AA + compound + EGF + Wnt3a
[7] = 10 ng/ml AA + compound + FGF4 + Wnt3a

## O=C1CCN2CCN(CC2)Cc2cc(Cl)cc(c2)Nc2ncnc(n2)-c2cncc(c2)CCCN1 [Compound 34, 5-Chloro-1,8,10,12,16,22,26,32-octaazapentacyclo[24.2.2.1˜3.7˜0.1˜9,13˜0.1˜14.18˜]tritriaconta-3(33), 4,6,9(32), 10,12,14(31), 15,17-nonaen-23-one]
[1]
  Cell Number, % of positive control: 233.85 % of positive control
  Cell Number, Average Total Cell Number: 17890
  Sox17 Expression, % of positive control: 258.30 % of positive control
  Sox17 Expression, Average Total Intensity: 2.88E+08
[2]
  Cell Number, % of positive control: 240.02 % of positive control
  Cell Number, Average Total Cell Number: 18362
  Sox17 Expression, % of positive control: 309.74 % of positive control
  Sox17 Expression, Average Total Intensity: 3.45E+08
[3]
  Cell Number, % of positive control: 203.58 % of positive control
  Cell Number, Average Total Cell Number: 15574
  Sox17 Expression, % of positive control: 232.70 % of positive control
  Sox17 Expression, Average Total Intensity: 2.59E+08
[4]
  Cell Number, % of positive control: 233.65 % of positive control
  Cell Number, Average Total Cell Number: 17875
  Sox17 Expression, % of positive control: 241.07 % of positive control
  Sox17 Expression, Average Total Intensity: 2.68E+08
[5]
  Cell Number, % of positive control: 185.07 % of positive control
  Cell Number, Average Total Cell Number: 14158
  Sox17 Expression, % of positive control: 215.35 % of positive control
  Sox17 Expression, Average Total Intensity: 2.40E+08
[6]
  Cell Number, % of positive control: 189.89 % of positive control
  Cell Number, Average Total Cell Number: 14527
  Sox17 Expression, % of positive control: 204.84 % of positive control
  Sox17 Expression, Average Total Intensity: 2.28E+08
[7]
  Cell Number, % of positive control: 174.15 % of positive control
  Cell Number, Average Total Cell Number: 13323
  Sox17 Expression, % of positive control: 196.86 % of positive control
  Sox17 Expression, Average Total Intensity: 2.19E+08
10 ng/ml AA + compound + Wnt3a
  Cell Number, % of positive control: 46.91 % of positive control
  Cell Number, Average Total Cell Number: 3589
  Sox17 Expression, % of positive control: 63.08 % of positive control
  Sox17 Expression, Average Total Intensity: 7.02E+07

## CCN1CC(=O)NCCCc2cncc(c2)-c2ncnc(n2)Nc2cc(Cl)cc(c2)C1 [Compound 35, 10-Chloro-14-ethyl-3,5,7,14,17,23,27-heptaazatetracyclo[19.3.1.1˜2,6˜0.1˜8,12]Theptacosa-1(25), 2(27), 3,5,8(26), 9,11,21,23-nonaen-16-one]
[1]
  Cell Number, % of positive control: 62.29 % of positive control
  Cell Number, Average Total Cell Number: 3820
  Sox17 Expression, % of positive control: −1.46 % of positive control
  Sox17 Expression, Average Total Intensity: −1.67E+06
[2]
  Cell Number, % of positive control: 41.14 % of positive control
  Cell Number, Average Total Cell Number: 2522
  Sox17 Expression, % of positive control: −4.25 % of positive control
  Sox17 Expression, Average Total Intensity: −4.86E+06
[3]
  Cell Number, % of positive control: 56.74 % of positive control
  Cell Number, Average Total Cell Number: 3479
  Sox17 Expression, % of positive control: −3.46 % of positive control
  Sox17 Expression, Average Total Intensity: −3.96E+06
[4]
  Cell Number, % of positive control: 53.21 % of positive control
  Cell Number, Average Total Cell Number: 3263
  Sox17 Expression, % of positive control: −3.99 % of positive control
  Sox17 Expression, Average Total Intensity: −4.56E+06
[5]
  Cell Number, % of positive control: 44.10 % of positive control
  Cell Number, Average Total Cell Number: 2704
  Sox17 Expression, % of positive control: −3.65 % of positive control
  Sox17 Expression, Average Total Intensity: −4.17E+06
[6]
  Cell Number, % of positive control: 2.53 % of positive control
  Cell Number, Average Total Cell Number: 155
  Sox17 Expression, % of positive control: −6.84 % of positive control
  Sox17 Expression, Average Total Intensity: −7.82E+06
[7]
  Cell Number, % of positive control: 4.64 % of positive control
  Cell Number, Average Total Cell Number: 284
  Sox17 Expression, % of positive control: −6.59 % of positive control
  Sox17 Expression, Average Total Intensity: −7.54E+06
10 ng/ml AA + compound + Wnt3a
  Cell Number, % of positive control: 2.83 % of positive control
  Cell Number, Average Total Cell Number: 173
  Sox17 Expression, % of positive control: −6.66 % of positive control
  Sox17 Expression, Average Total Intensity: −7.61E+06

Source: US9593305B2, “Differentiation of pluripotent stem cells” (Janssen Biotech, Inc., priority 2008, dated 2017)
